# Molecular target: Stromelysin (Homo sapiens, UniProt P08254)
# Test: MMP inhibition, particle concentration fluorescence assay
# Assay type: biochemical
# Settings: in vitro; fluorescein/biotin substrate; MMP buffer pH 7.5; room temperature
# Experimental: Inhibitory activity is evaluated in one or more of the MMP enzymes (stromelysin, gelatinase, and collagenase) in vitro using particle concentration fluorescence assay. An inhibitor binds to MMP enzymes which prevents the degradation of a substrate by stromelysin, gelatinase, or collagenase. The substrate has attached to it a fluorescein and a biotin moiety. The intact substrate then binds to an avidin-coated particle via the biotin moiety. Once the particle is washed and dried, a fluorescent signal is generated since the fluorescent group is attached to the particle. Without an inhibitor present, the substrate is degraded by MMP enzymes and the fluorescein group is removed, therefore, no fluorescent signal can be detected. Testing compounds are dissolved in DMSO to the desired concentration, then the solutions are diluted to 1:5 with MMP buffer (50 mM Tris-HCl, pH 7.5; 150 mM NaCl; 0.02% NaN3). Serial two-fold dilutions of each compound are prepared. A concentrated, activated enzyme solution is transferred into each plate of the testing compounds, and the mixture is incubated at room temperature for 15 minutes. […] At this point, the substrate mixture is mixed with 0.1% avidin-coated polystyrene particles. After 15 minutes, the fluorescence values are measured following filtration and washing of the beads. Ki values are then calculated.
# Sequence of Stromelysin (P08254 100-477): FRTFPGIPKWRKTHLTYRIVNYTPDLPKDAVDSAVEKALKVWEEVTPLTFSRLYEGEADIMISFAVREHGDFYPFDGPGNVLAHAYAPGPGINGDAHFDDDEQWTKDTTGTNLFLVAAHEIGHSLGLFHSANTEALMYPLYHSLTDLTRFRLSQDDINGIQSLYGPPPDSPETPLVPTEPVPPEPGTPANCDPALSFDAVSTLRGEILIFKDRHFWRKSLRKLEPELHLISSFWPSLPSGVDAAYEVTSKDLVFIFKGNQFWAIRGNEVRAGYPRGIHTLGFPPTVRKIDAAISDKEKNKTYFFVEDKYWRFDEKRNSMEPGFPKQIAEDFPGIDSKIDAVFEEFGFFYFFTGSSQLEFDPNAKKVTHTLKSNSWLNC
row,Ki,Compound
1,640 nM,"O=C(Nc1n[nH]c(=S)s1)N[C@@H](Cc1ccccc1)C(=O)NCc1nc2ccccc2[nH]1 [Example 57, N-(1H-Benzimidazol-2-ylmethyl)-α-[[[(4,5-dihydro-5-thioxo-1,3,4-thiadiazol-2-yl)amino]carbonyl]amino]-(S)-benzenepropanamide]"
2,1820 nM,"CNC(=O)[C@H](Cc1ccc(C(C)(C)C)cc1)NC(=O)Nc1n[nH]c(=S)s1 [Example 81, α-[[[(4,5-dihydro-5-thioxo-1,3,4-thiadiazol-2-yl)amino]carbonyl]amino]-4-(1,1-dimethylethyl)-N-methyl-(S)-benzenepropanamide]"
3,750 nM,"O=C(Nc1n[nH]c(=S)s1)N[C@@H](Cc1ccccc1)C(=O)NCc1ccc(C(F)(F)F)cc1 [Example 52, α-[[[(4,5-Dihydro-5-thioxo-1,3,4-thiadiazol-2-yl)amino]carbonyl]-amino]-N-[(4-trifluoromethylphenyl)methyl]-(S)-benzenepropanamide]"
4,2750 nM,"COC(=O)[C@H](Cc1ccc(OC)cc1)NC(=O)Nc1n[nH]c(=S)s1 [Example 30, N-[[(4,5-Dihydro-5-thioxo-1,3,4-thiadiazol-2-yl)amino]carbonyl]-O-methyl-L-tyrosine methyl ester]"
5,1680 nM,"O=C(Nc1n[nH]c(=S)s1)N[C@@H](Cc1ccccc1)C(=O)N1CCN(c2ccccc2)CC1 [Example 50, (S)-1-[2-[[[(4,5-Dihydro-5-thioxo-1,3,4-thiadiazol-2-yl)amino]carbonyl]amino]-1-oxo-3-phenylpropyl]-4-phenylpiperazine]"
6,650 nM,"O=C(Nc1n[nH]c(=S)s1)N[C@@H](CC1CCCCC1)C(=O)NCCc1ccccc1 [Example 62, α-[[[(4,5-Dihydro-5-thioxo-1,3,4-thiadiazol-2-yl)amino]carbonyl]amino]-N-(2-phenylethyl)-(S)-cyclohexanepropanamide]"
7,1080 nM,O=C(O)CCNC(=O)[C@H](Cc1ccccc1)NC(=O)Nc1n[nH]c(=S)s1 [Example 44]
8,1990 nM,"O=C(Nc1n[nH]c(=S)s1)N[C@@H](Cc1ccccc1)C(=O)NCCN1CCOCC1 [Example 19, α-[[[(4,5-Dihydro-5-thioxo-1,3,4-thiadiazol-2-yl)amino]carbonyl]-amino]-N-[2-(4-morpholinyl)ethyl]-(S)-benzenepropanamide]"
9,800 nM,"COC(=O)[C@H](Cc1ccc(C(C)(C)C)cc1)NC(=O)Nc1n[nH]c(=S)s1 [Example 80, N-[[(4,5-Dihydro-5-thioxo-1,3,4-thiadiazol-2-yl)amino]carbonyl]-4-(1,1-dimethylethyl)-L-phenylalanine methyl ester]"
10,1100 nM,"O=C(Nc1n[nH]c(=S)s1)N[C@@H](Cc1ccccc1)C(=O)NCc1ccccn1 [Example 7, α-[[[(4,5-Dihydro-5-thioxo-1,3,4-thiadiazol-2-yl)amino]carbonyl]-amino]-N-(2-pyridinylmethyl)-(S)-benzenepropanamide]"
11,1740 nM,"CC(C)(C)c1ccc(CNC(=O)[C@H](Cc2ccccc2)NC(=O)Nc2n[nH]c(=S)s2)cc1 [Example 54, α-[[[(4,5-Dihydro-5-thioxo-1,3,4-thiadiazol-2-yl)amino]-carbonyl]amino]-N-[[4-(1,1-dimethylethyl)phenyl]methyl]-(S)-benzenepropanamide]"

row,Compound,Ki
1,"O=C(Nc1n[nH]c(=S)s1)N[C@@H](Cc1ccccc1)C(=O)NCCCCc1ccccc1 [Example 37, aα-[[[(4,5-Dihydro-5-thioxo-1,3,4-thiadiazol-2-yl)amino]carbonyl]amino]-N-(4-phenylbutyl)-(S)-benzenepropanamide]",820 nM
